Assay results as given in ChEMBL document CHEMBL4346688, “Discovery of novel mutant-combating ALK and ROS1 dual inhibitors bearing imidazolidin-2-one moiety with reasonable PK properties” (Eur J Med Chem, 2019).

Legend:
Assay in all cases: cells
BaF3 [1] = details: Mus musculus, BaF3, 72 h
Description: Cytotoxicity against mouse BA/F3 cells incubated for 72 hrs by MTT assay

HCC78 = details: Homo sapiens, HCC78, 72 h
Description: Cytotoxicity against human HCC78 cells incubated for 72 hrs by MTT assay

A549 [2] = details: Homo sapiens, A549, 72 h
Description: Cytotoxicity against human A549 cells incubated for 72 hrs by MTT assay

BaF3 [3] = details: Mus musculus, BaF3, 72 h; remark: listed apart in the source
A549 [4] = details: Homo sapiens, A549, 72 h; remark: listed apart in the source
KARPAS-299 = details: Homo sapiens, KARPAS-299, 72 h
Description: Cytotoxicity against human KARPAS299 cells incubated for 72 hrs by MTT assay

NCI-H2228 = details: Homo sapiens, NCI-H2228, 72 h
Description: Cytotoxicity against human NCI-H2228 cells incubated for 72 hrs by MTT assay

CCOC(=O)CN1CCN(c2ccc(Nc3ncc(Cl)c(Nc4ccccc4S(=O)(=O)C(C)C)n3)c(OC)c2)C1=O
IC50 (BaF3 [1]): > 5000 nM
IC50 (HCC78): 1570 nM
IC50 (A549 [2]): > 5000 nM
IC50 (BaF3 [3]): 3450 nM
IC50 (A549 [4]): 2110 nM
IC50 (KARPAS-299): 760 nM
IC50 (NCI-H2228): 1530 nM

COc1cc(N2CCN(CC(=O)N3CCCC3)C2=O)ccc1Nc1ncc(Cl)c(Nc2ccccc2S(=O)(=O)C(C)C)n1
IC50 (BaF3 [1]): 4500 nM
IC50 (HCC78): 270 nM
IC50 (A549 [2]): 3100 nM
IC50 (BaF3 [3]): 2490 nM
IC50 (A549 [4]): 1100 nM
IC50 (KARPAS-299): 390 nM
IC50 (NCI-H2228): 150 nM

COc1cc(N2CCN(CC(=O)N3CCC[C@H]3CO)C2=O)ccc1Nc1ncc(Cl)c(Nc2ccccc2S(=O)(=O)C(C)C)n1
IC50 (BaF3 [1]): > 5000 nM
IC50 (HCC78): 56 nM
IC50 (A549 [2]): 2450 nM
IC50 (BaF3 [3]): 1190 nM
IC50 (A549 [4]): 1160 nM
IC50 (KARPAS-299): 140 nM
IC50 (NCI-H2228): 170 nM

COc1cc(N2CCN(CC(=O)N3CCCCC3)C2=O)ccc1Nc1ncc(Cl)c(Nc2ccccc2S(=O)(=O)C(C)C)n1
IC50 (BaF3 [1]): > 5000 nM
IC50 (HCC78): 490 nM
IC50 (A549 [2]): > 5000 nM
IC50 (BaF3 [3]): 2970 nM
IC50 (A549 [4]): 1070 nM
IC50 (KARPAS-299): 150 nM
IC50 (NCI-H2228): 530 nM

COCCN1CCN(c2ccc(Nc3ncc(Cl)c(Nc4ccccc4S(=O)(=O)C(C)C)n3)c(OC)c2)C1=O
IC50 (BaF3 [1]): > 5000 nM
IC50 (HCC78): 410 nM
IC50 (A549 [2]): 3110 nM
IC50 (BaF3 [3]): 3510 nM
IC50 (A549 [4]): 1150 nM
IC50 (KARPAS-299): 570 nM
IC50 (NCI-H2228): 870 nM

COc1cc(N2CCN(CC(=O)N3CC(O)C3)C2=O)ccc1Nc1ncc(Cl)c(Nc2ccccc2S(=O)(=O)C(C)C)n1
IC50 (BaF3 [1]): > 5000 nM
IC50 (HCC78): 110 nM
IC50 (A549 [2]): 2970 nM
IC50 (BaF3 [3]): 4280 nM
IC50 (A549 [4]): 1020 nM
IC50 (KARPAS-299): 130 nM
IC50 (NCI-H2228): 320 nM

COc1cc(N2CCN(CC(=O)N3CCOCC3)C2=O)ccc1Nc1ncc(Cl)c(Nc2ccccc2S(=O)(=O)C(C)C)n1
IC50 (BaF3 [1]): > 5000 nM
IC50 (HCC78): 210 nM
IC50 (A549 [2]): > 5000 nM
IC50 (BaF3 [3]): 2060 nM
IC50 (A549 [4]): 970 nM
IC50 (KARPAS-299): 760 nM
IC50 (NCI-H2228): 570 nM

COc1cc(N2CCN(C(=O)C3CCOCC3)C2=O)ccc1Nc1ncc(Cl)c(Nc2ccccc2S(=O)(=O)C(C)C)n1
IC50 (BaF3 [1]): > 5000 nM
IC50 (HCC78): 690 nM
IC50 (A549 [2]): > 5000 nM
IC50 (BaF3 [3]): > 5000 nM
IC50 (A549 [4]): > 5000 nM
IC50 (KARPAS-299): 310 nM
IC50 (NCI-H2228): 920 nM

COc1cc(N2CCN(CC(=O)N3CCC(C)CC3)C2=O)ccc1Nc1ncc(Cl)c(Nc2ccccc2S(=O)(=O)C(C)C)n1
IC50 (BaF3 [1]): > 5000 nM
IC50 (HCC78): 870 nM
IC50 (A549 [2]): > 5000 nM
IC50 (BaF3 [3]): > 5000 nM
IC50 (A549 [4]): 2360 nM
IC50 (KARPAS-299): 280 nM
IC50 (NCI-H2228): 350 nM

COc1cc(N2CCN(CCN3CCOCC3)C2=O)ccc1Nc1ncc(Cl)c(Nc2ccccc2S(=O)(=O)C(C)C)n1
IC50 (BaF3 [1]): > 5000 nM
IC50 (HCC78): 730 nM
IC50 (A549 [2]): > 5000 nM
IC50 (BaF3 [3]): 110 nM
IC50 (A549 [4]): 2170 nM
IC50 (KARPAS-299): 390 nM
IC50 (NCI-H2228): 750 nM

CCN(CC)C(=O)CN1CCN(c2ccc(Nc3ncc(Cl)c(Nc4ccccc4S(=O)(=O)C(C)C)n3)c(OC)c2)C1=O
IC50 (BaF3 [1]): > 5000 nM
IC50 (HCC78): 310 nM
IC50 (A549 [2]): > 5000 nM
IC50 (BaF3 [3]): > 5000 nM
IC50 (A549 [4]): 1490 nM
IC50 (KARPAS-299): 170 nM
IC50 (NCI-H2228): 870 nM

COc1cc(N2CCN(CC(=O)N3CCN(CCO)CC3)C2=O)ccc1Nc1ncc(Cl)c(Nc2ccccc2S(=O)(=O)C(C)C)n1
IC50 (BaF3 [1]): > 5000 nM
IC50 (HCC78): 390 nM
IC50 (A549 [2]): 4590 nM
IC50 (BaF3 [3]): 160 nM
IC50 (A549 [4]): 2440 nM
IC50 (KARPAS-299): 110 nM
IC50 (NCI-H2228): 120 nM

COc1cc(N2CCN(CC(=O)O)C2=O)ccc1Nc1ncc(Cl)c(Nc2ccccc2S(=O)(=O)C(C)C)n1
IC50 (BaF3 [1]): > 5000 nM
IC50 (HCC78): 2510 nM
IC50 (A549 [2]): > 5000 nM
IC50 (BaF3 [3]): > 5000 nM
IC50 (A549 [4]): > 5000 nM
IC50 (KARPAS-299): 3270 nM
IC50 (NCI-H2228): 1710 nM

COc1cc(N2CCN(CC(=O)NCC#N)C2=O)ccc1Nc1ncc(Cl)c(Nc2ccccc2S(=O)(=O)C(C)C)n1
IC50 (BaF3 [1]): > 5000 nM
IC50 (HCC78): 77 nM
IC50 (A549 [2]): 4120 nM
IC50 (BaF3 [3]): 2790 nM
IC50 (A549 [4]): 2410 nM
IC50 (KARPAS-299): 150 nM
IC50 (NCI-H2228): 230 nM
